Patent US7527935B2, “G-protein coupled receptor having eicosanoid as ligand and gene thereof” (Mitsubishi Tanabe Pharma Corporation, priority 2002, dated 2009)

How the values were obtained:
[1] = system: TG1019 (5-oxo-ETE receptor); test: Intracellular calcium level in CHO cells stably expressing TG1019; assay type: cell-based, human; details: FuraII 340/380 nm ratio
Protocol: (1) Preparation of cells stably expressing TG1019 Cells stably expressing TG1019 (the receptor protein of the present invention) and cells not expressing TG1019 were prepared by introducing to CHO cells the TG1019 protein expression vector prepared in Example 5 and the control vector, as described below.
The cells stably expressing TG1019 prepared in the above section (1) was incubated in DMEM/F12 medium supplemented with 10% fetal bovine serum at 37° C. in a CO2 incubator. To the cells which were 80 to 90% confluent, was added a cell dissociation buffer (Cell Dissociation Buffer Enzyme-free PBS-based, available from Invitrogen), and cells were dissociated by incubating at 37° C. for 5 minutes. […]
The cells after loading were centrifuged once with an assay buffer, to remove supernatant, and then, they were suspended in an assay buffer to have a concentration of 3.7 to 6.3×10^6 cells/ml. This cell suspension was portioned into a 96 well plate by 80 μl/well, and the plate was set in a fluorescence measuring device (FDSS6000, [Hamamatsu Photonics]), and the reaction was started by adding a solution containing 5-oxo-ETE or 5-HETE in a 5 fold concentration dissolved in an assay buffer, by 20 μl/well. The measurement was done by measuring fluorescence intensity at 510 nm, with excitation wavelength of 340 nm and 380 nm.

[2] = system: TG1019 (5-oxo-ETE receptor); test: Migration test using CHO cells stably expressing TG1019; assay type: cell-based, human; details: 5 hours
Protocol: The cells stably expressing TG1019 and the cells not expressing the same obtained in the above section (1) were cultured in a medium (DMEM/F12 medium supplemented with 10% fetal bovine serum [GibcoBRL]), containing 800 μg/ml of hygromycin B. The cells which were 80 to 90% confluent were dissociated by a cell dissociation buffer, and the cells were washed twice by centrifugation (600×g, 5 minutes, 4° C.) with 10 ml of RPMI1640 culture medium supplemented with 0.1% BSA Then, the cells were prepared to a concentration of 1×10^6 cells/ml in the same medium.
Cell migration test was carried out using 2 chambers for migration test (Transwell; 8 μm pore, 24 well, 3422 [Costar]). Chambers were set in a plate, and a solution (600 μl) containing 5-oxo-ETE was added to the lower chamber, and the cell solution (100 μl) was added to the upper chamber, to start the reaction. Migration was carried out at 37° C. for 5 hours in a CO2 incubator.
The chambers were removed, and […] of the solution in the lower chamber was transferred to a tube, and centrifuged at 600×g, 3 minutes, 4° C. 300 μl of the supernatant was removed, and RPMI1640 culture medium supplemented with 0.1% BSA (not containing phenol red) was added, if needed, to adjust a volume of the cell solution to 300 μl. The number of the cells migrated to the lower chamber were counted by flow cytometer.

[3] = system: neutrophils; test: Migration test of neutrophils; assay type: cell-based; details: purified human neutrophils; 2 hours
Protocol: Neutrophils were purified as follows. Blood was collected (50 ml) from healthy male adult volunteers. Then, 12.5 ml each of the collected blood was poured into a 50 ml tube containing 23 ml physiological saline, and, the total volume was adjusted to 40 ml with physiological saline. To a bottom of the tube, Percoll solution (specific gravity: 1.079±0.004, 10 ml) was gently added, and the mixture was centrifuged at 430×g, for 20 minutes at room temperature, without deceleration or acceleration.
After washing the eosinophils and neutrophils purified in the above sections, the cells were suspended in RPMI1640 supplemented with 0.1% BSA (not containing phenol red) which contains 3 μM Calcein-AM (Dojindo laboratories, fluorescence reagent), so that the cell count became 1×10^6 cells/ml. The suspension was incubated at 37° C. for 30 minutes. The cells were washed twice with the same culture medium, and suspended in the same medium so that the cell count became 1×10^6 cells/ml. […]
After the reaction, the chambers were removed, and to the lower chamber was added 66 μl of 10× lysis buffer (5% Triton X-100 dissolved in PBS, 10% ethanol). […] 200 μl of the cell lysate was transferred to 96 well black plate (237105, Nunc), and fluorescence intensities were measured using a fluorometer (ARVO™ SX, Wallac) with an excitation wavelength of 485 nm and a fluorescence wavelength of 535 nm.

With CCCCC/C=C\C/C=C\C/C=C\C=C\C(=O)CCCC(=O)O [5-oxo-ETE, 5-oxo-6E,8Z,11Z,14Z-eicosatetraenoic acid] as the compound, how does the “change in intracellular calcium level” value [1] read?
The value was “increase in intracellular calcium level”.

What about the cell migration ([2]; cells not expressing TG1019) of the same compound?
The cell migration was “did not”.

And the cell migration ([2]; cells stably expressing TG1019)?
Its cell migration is “showed 5-oxo-ETE-induced migration”.

What about the migration of neutrophils [3] of the same compound?
Its migration of neutrophils is “has an ability to make these cells migrate”.
